Source: the NIST ThermoML archive (doi:10.1021/acs.jced.9b00249)

Assays:
[1] = for mass density: isochoric method; for vapor or sublimation pressure: Diaphragm manometer
[2] = xn = mol fraction of the nth substance listed; conditions: isochoric method

COC [dimethyl ether]
[1]
Conditions	mass density [kg/m3]
382.8 K, 4580 kPa, Liquid	451
402.8 K, 8580 kPa, Gas	451
411.6 K, 10360 kPa, Gas	451
419.5 K, 12150 kPa, Gas	451
425.4 K, 13670 kPa, Gas	451
429.8 K, 14600 kPa, Gas	451
432.6 K, 15210 kPa, Gas	451
437.2 K, 16200 kPa, Gas	451

CCCCC [pentane]
Conditions	vapor or sublimation pressure [kPa]
[1], 406.9 K, Liquid	1300

[1], Liquid
Conditions	mass density [kg/m3]
417.1 K, 3060 kPa	484
428 K, 6070 kPa	484
436.6 K, 8340 kPa	484
446.3 K, 10730 kPa	484
453.2 K, 12730 kPa	484

CCCCC [pentane] + CCC
[2]
Conditions	mass density [kg/m3]
319.6 K, 5320 kPa, Liquid, x2 = 0.849	507
320.4 K, 12800 kPa, Liquid, x2 = 0.512	567
324.9 K, 8620 kPa, Liquid, x2 = 0.849	507
326.1 K, 16230 kPa, Liquid, x2 = 0.512	567
328.6 K, 10330 kPa, Liquid, x2 = 0.849	507
331.8 K, 12010 kPa, Liquid, x2 = 0.849	507
332 K, 19720 kPa, Liquid, x2 = 0.512	567
336.2 K, 14280 kPa, Liquid, x2 = 0.849	507
337.7 K, 22920 kPa, Liquid, x2 = 0.512	567
340.8 K, 16310 kPa, Liquid, x2 = 0.849	507
341.2 K, 24970 kPa, Liquid, x2 = 0.512	567
345.3 K, 18250 kPa, Liquid, x2 = 0.849	507
349.2 K, 20380 kPa, Liquid, x2 = 0.849	507
353.6 K, 22340 kPa, Liquid, x2 = 0.849	507
357.2 K, 24290 kPa, Liquid, x2 = 0.849	507
394.8 K, 3250 kPa, Liquid, x2 = 0.551	401
397.7 K, 4520 kPa, Liquid, x2 = 0.78	311
404.7 K, 4010 kPa, Fluid (supercritical or subcritical phases), x2 = 0.551	401
406.5 K, 5640 kPa, Fluid (supercritical or subcritical phases), x2 = 0.78	311
409.3 K, 3610 kPa, Liquid, x2 = 0.474	384
410.5 K, 4620 kPa, Fluid (supercritical or subcritical phases), x2 = 0.551	401
416.5 K, 6760 kPa, Fluid (supercritical or subcritical phases), x2 = 0.78	311
418.3 K, 5640 kPa, Fluid (supercritical or subcritical phases), x2 = 0.551	401
419.2 K, 4730 kPa, Fluid (supercritical or subcritical phases), x2 = 0.474	384
428.6 K, 8280 kPa, Fluid (supercritical or subcritical phases), x2 = 0.78	311
428.9 K, 6560 kPa, Fluid (supercritical or subcritical phases), x2 = 0.474	384
437.3 K, 9610 kPa, Fluid (supercritical or subcritical phases), x2 = 0.78	311
439.5 K, 8280 kPa, Fluid (supercritical or subcritical phases), x2 = 0.474	384
447.3 K, 10720 kPa, Fluid (supercritical or subcritical phases), x2 = 0.78	311
449.2 K, 10010 kPa, Fluid (supercritical or subcritical phases), x2 = 0.474	384
456.4 K, 12260 kPa, Fluid (supercritical or subcritical phases), x2 = 0.78	311

CCC [propane]
[1], Liquid
Conditions	vapor or sublimation pressure [kPa]
305.9 K	1030
319.2 K	1270
326.8 K	2260
334.3 K	2350
349.3 K	3040
362.1 K	3920
367.9 K	4440

[1], Gas
Conditions	mass density [kg/m3]
383.7 K, 5980 kPa	292
397.4 K, 7350 kPa	292
402.9 K, 7940 kPa	292
434 K, 12760 kPa	292
